The record followed here is ChEMBL document CHEMBL4804283, “Stk19 inhibitors for treatment of cancer” (2020).

A short description of series [1]: Toxicity in C57BL/6J mouse assessed as spleen histology at 25 mg/kg, administered twice daily for 20 days by H and E staining method. The note with it: in vivo, 480 h. Format: organism-based.
The next series relates to WM2032. Nature of the series: Induction of apoptosis in human WM2032 cells expressing NRAS Q61R and wild-type BRAF at 1-3 uM relative to control. Format: functional, cell-based.
Series [2] is described as follows: Toxicity in C57BL/6J mouse assessed as effect on aspartate aminotransferase level at 25 mg/kg, administered twice daily for 20 days. Format: organism-based. The note with it: in vivo, 480 h.
The next series concerns hTERT. The series is described as follows: Antiproliferative activity against hTERT/p53DD/CDK4 (R24C) immortal melanocytes expressing wild-type STK19 at 3 uM relative to control. The note with it: Homo sapiens. Format: functional, tissue-based.
Series [3] relates to SK-MEL-2. Nature of the series: Antitumor activity against human SK-MEL-2 cells xenografted in nude mouse assessed as tumor growth inhibition. Format: functional. In general terms: Xenograft models place foreign cells or tissue in a host animal.
Series [4] has as its system T1, Inactive serine/threonine-protein kinase 19 (Homo sapiens), P49842 [D89N].
T1 sequence (whole entry): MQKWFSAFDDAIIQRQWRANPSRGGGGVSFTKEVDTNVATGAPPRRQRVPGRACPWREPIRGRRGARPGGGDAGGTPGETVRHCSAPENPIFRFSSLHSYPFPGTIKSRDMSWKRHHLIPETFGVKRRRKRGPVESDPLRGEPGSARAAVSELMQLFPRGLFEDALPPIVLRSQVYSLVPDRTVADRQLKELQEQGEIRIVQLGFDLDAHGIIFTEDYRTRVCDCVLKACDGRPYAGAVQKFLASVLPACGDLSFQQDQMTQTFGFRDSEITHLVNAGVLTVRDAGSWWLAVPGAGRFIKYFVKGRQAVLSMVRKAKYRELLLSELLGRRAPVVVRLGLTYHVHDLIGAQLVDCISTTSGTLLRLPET
Nature of the series: Inhibition of STK19 in STK19-depleted human primary melanocytes expressing STK19 D89N mutant at 1-3 uM assessed as NRAS phosphorylation relative to control. Format: tissue-based. Particulars: Melanocyte.

Series [5] concerns the target T2, Inactive serine/threonine-protein kinase 19 (Homo sapiens) (UniProt P49842).
T2 sequence (whole entry): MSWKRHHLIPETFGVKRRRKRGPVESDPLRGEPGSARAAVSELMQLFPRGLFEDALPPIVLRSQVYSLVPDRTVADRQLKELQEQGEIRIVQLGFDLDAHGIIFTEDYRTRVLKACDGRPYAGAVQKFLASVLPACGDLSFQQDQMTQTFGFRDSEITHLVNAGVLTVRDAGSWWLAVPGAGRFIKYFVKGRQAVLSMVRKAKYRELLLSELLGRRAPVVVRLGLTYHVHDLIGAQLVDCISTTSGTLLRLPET
Nature of the series: Inhibition of STK19 in human A375 cells expressing wild-type NRAS and BRAF V600E mutant at 1-3 uM assessed as MEK-ERK signaling relative to control. Format: cell-based. The note with it: A-375.

Series [6] relates to SK-MEL-2. The series is described as follows: Inhibition of G9a in nude mouse xenografted with human SK-MEL-2 cells assessed as decrease in H3K9 methylation at 25 mg/kg. Format: functional, organism-based.
In series [7] the target is T2, Inactive serine/threonine-protein kinase 19 (Homo sapiens). The series is described as follows: Inhibition of STK19 in human SK-MEL-2 cells expressing NRAS Q61R and wild-type BRAF at 1-3 uM assessed as PI3K signaling relative to control. Format: cell-based.
For series [8] the target is unchanged. The series is described as follows: Inhibition of STK19 in human UACC62 cells expressing wild-type NRAS and BRAF V600E mutant at 1-3 uM assessed as NRAS signaling relative to control. Format: cell-based. The note with it: UACC-62.
The target is the same in series [9]. The series is described as follows: Inhibition of STK19 in STK19-depleted human primary melanocytes expressing wild-type STK19 at 1-3 uM assessed as NRAS phosphorylation relative to control. Format: tissue-based. Particulars: Melanocyte.
Series [10] is described as follows: Toxicity in nude mouse xenografted with human SK-MEL-2 cells assessed as increase in animal survival at 25 mg/kg. Format: organism-based. Particulars: in vivo.
Series [11] in a line: Toxicity in C57BL/6J mouse assessed as effect on phosphorous level at 25 mg/kg, administered twice daily for 20 days. Format: organism-based. The note with it: in vivo, 480 h.
Series [12] concerns the target T3, Histone-lysine N-methyltransferase EHMT2 (Homo sapiens) (UniProt Q96KQ7).
T3 sequence (whole entry): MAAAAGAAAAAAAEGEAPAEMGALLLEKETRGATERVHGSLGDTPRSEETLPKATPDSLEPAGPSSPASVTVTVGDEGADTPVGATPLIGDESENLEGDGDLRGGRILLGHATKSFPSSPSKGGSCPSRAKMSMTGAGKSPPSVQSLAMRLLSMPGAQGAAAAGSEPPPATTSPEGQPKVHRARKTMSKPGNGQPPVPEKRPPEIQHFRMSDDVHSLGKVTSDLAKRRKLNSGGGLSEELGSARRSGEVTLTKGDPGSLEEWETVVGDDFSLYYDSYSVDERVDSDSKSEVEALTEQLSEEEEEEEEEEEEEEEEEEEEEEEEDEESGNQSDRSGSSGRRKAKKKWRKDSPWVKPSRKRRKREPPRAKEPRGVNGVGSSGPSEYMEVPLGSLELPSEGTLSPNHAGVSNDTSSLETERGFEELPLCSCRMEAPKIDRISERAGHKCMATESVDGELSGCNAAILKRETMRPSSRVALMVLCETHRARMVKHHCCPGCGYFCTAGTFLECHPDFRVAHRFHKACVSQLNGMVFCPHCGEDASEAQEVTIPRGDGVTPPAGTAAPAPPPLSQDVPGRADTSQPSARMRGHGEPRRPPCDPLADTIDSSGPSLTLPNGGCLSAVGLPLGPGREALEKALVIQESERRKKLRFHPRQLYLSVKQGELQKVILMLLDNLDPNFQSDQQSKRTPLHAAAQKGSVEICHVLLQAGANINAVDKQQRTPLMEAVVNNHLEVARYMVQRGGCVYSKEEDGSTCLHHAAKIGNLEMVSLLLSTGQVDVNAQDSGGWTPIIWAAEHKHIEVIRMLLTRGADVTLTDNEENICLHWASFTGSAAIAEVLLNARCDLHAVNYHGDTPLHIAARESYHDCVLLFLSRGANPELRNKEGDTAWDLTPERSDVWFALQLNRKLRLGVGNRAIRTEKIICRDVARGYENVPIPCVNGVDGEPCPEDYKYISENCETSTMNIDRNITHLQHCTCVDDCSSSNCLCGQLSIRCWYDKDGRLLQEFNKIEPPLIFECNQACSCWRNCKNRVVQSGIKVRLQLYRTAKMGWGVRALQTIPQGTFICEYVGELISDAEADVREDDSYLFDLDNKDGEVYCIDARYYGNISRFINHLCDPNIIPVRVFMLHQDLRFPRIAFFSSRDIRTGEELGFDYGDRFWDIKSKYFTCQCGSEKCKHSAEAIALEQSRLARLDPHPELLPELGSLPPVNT
The series is described as follows: Inhibition of G9a in human SK-MEL-2 cells expressing NRAS Q61R and wild-type BRAF at 100-300 nM relative to control. Format: cell-based.

In series [13] the target is T2, Inactive serine/threonine-protein kinase 19 (Homo sapiens). The series is described as follows: Inhibition of STK19 in human WM2032 cells expressing NRAS Q61R and wild-type BRAF at 1-3 uM assessed as PI3K signaling relative to control. Format: cell-based.
The target is the same in series [14]. Nature of the series: Inhibition of STK19 in human SK-MEL-2 cells expressing NRAS Q61R and wild-type BRAF at 100 nM assessed as NRAS phosphorylation relative to control. Format: cell-based.

Activity calls are given as the source filed them. The rule behind the calls is not given here.

`COc1cc2nc(NC3CC3)nc(NC3CCN(C(C)C)CC3)c2cc1OC.O=C(O)C(F)(F)F`: the Activity result in [1], in [2], in series [10] and in [11] was “Non-Toxic” each time. The outcome with WM2032 and with hTERT was Active. Moreover, the TGI result with SK-MEL-2 [3] is “Dose-Dependent Effect”. Further, the inhibition result in series [4], in series [7], in [9], in series [13] and in [14] was “Active” in each case. For the same compound, the inhibition result (in [5]; with SK-MEL-2 [6]; in series [8]; in series [12]) was “inactive” each time.
